Two substances from patent EP2407164A1, “Copper II complexes of phenanthroline and their use in cancer treatment” (Dublin Institute of Technology Intellectual Property Ltd, priority 2010, dated 2012) can be followed below.

Data set [1] has as its system HT29. Briefly: MTT cytotoxicity assay, complex 7. In kind it is cell-based, Human. The following applies: HT29 colon cancer line, 24 hr. As to the method:
(§1) For cytotoxicity evaluation HT29, SW480 and SW620 cell lines were employed; all the cell lines were grown in RPMI 1640 media (Fischer). All media were supplemented with 10% foetal bovine serum (FBS) and 45 IU/ml penicillin and 45 µg/ml streptomycin and cells were maintained at 37 °C in a 5% CO2 humidified incubator.
(§2) For sterilisation samples were filtered with a 0.2 micron cellulose acetate filter. For cytotoxicological evaluation all samples were prepared fresh on the day of exposure. A stock concentration of test compound was prepared in the exposure media (10% DMEM F-12) necessary for the cell line under test. This sample was vortexed to ensure a uniform dispersion of the compound under test.
For cytotoxicity assays cells were seeded in 96-well microplates (Nunc, Denmark) at a density of 1 x 10^5 cells/ml for the 24 hr test, 5 x10^4 cells/ml for the 48 hr test and 3 x 10^4 cells/ml for the 96 hr test. […] After 24 h of cell attachment, plates were washed with 100 µl/well phosphate buffered saline (PBS) and the cells were treated with increasing concentrations of each compound for 24 h. […] The plate was shaken at 240 rpm for 10 min and the absorbance was measured at 570 nm.
At least three independent experiments were conducted in triplicate for each cell line and toxicity endpoint. […] Differences between samples and the control were evaluated using the statistical analysis package SPSS 14.0. […]

The test system of another data set is SW480. Briefly: MTT cytotoxicity assay, complex 7. The format is cell-based. The following applies: SW480 (Dukes' B) colon cancer line, 24 hr. As to the method:
as §1, §2
(§3) For cytotoxicity assays cells were seeded in 96-well microplates (Nunc, Denmark) at a density of 1 x 10^5 cells/ml for the 24 hr test, 5 x10^4 cells/ml for the 48 hr test and 3 x 10^4 cells/ml for the 96 hr test. […] After 24 h of cell attachment, plates were washed with 100 µl/well phosphate buffered saline (PBS) and the cells were treated with increasing concentrations of each compound for 24 h. Six replicate wells were used for each control and test concentration per microplate. Following the desired time of compound exposure, control medium or test exposures were removed, the cells were rinsed with PBS and 100 µl of fresh medium (without FBS or supplements) was added to each well. 10 µl of MTT (5 mg/ml) prepared in PBS was then added to each well and the plates were incubated for 3 h at 37°C in a 5% CO2 humidified incubator. After this incubation period the medium was discarded, the cells were washed with 100 µl of PBS and 100 µl of DMSO was added to each well to extract the dye. The plate was shaken at 240 rpm for 10 min and the absorbance was measured at 570 nm.
(§4) At least three independent experiments were conducted in triplicate for each cell line and toxicity endpoint. […] Control values were set as 100%. Differences between samples and the control were evaluated using the statistical analysis package SPSS 14.0. Statistically significant differences were set at p≤0.05.

In a further data set the test system is SW620. In words: MTT cytotoxicity assay, complex 7. The format is cell-based. The following applies: SW620 (Dukes' C) colon cancer line, 24 hr. On the procedure: as §1, §2, §3, §4
For orientation: Formazan colour is commonly taken as a measure of viable cells.

The subject of data set [2] is CT-DNA. Briefly: Competitive ethidium bromide displacement. In kind it is binding, calf. The following applies: for Kapp (apparent binding constant): Kapp = Ke x 1.26/C50 where Ke = 9.5 x 10^6 M(bp)^-1; for Kapp (apparent binding constant) / IC50: 1.2 µM EtBr, 1 µM CT-DNAp, pH 7.0; for IC50: final volume 2 mL, 10 mM TES, 0.1 mM Na2EDTA, read-out: C50 = concentration required to reduce fluorescence by 50%. On the procedure: Competitive Ethidium Displacement. […] Complexes 4-6, actinomycin D, pentamidine isethionate were prepared at 2.0 mM in DMSO. Two millilitres of DNA-Et solution were placed in a 10-mm quartz cuvet (3 mL) and positioned in a temperature controlled (20°C) spectrofluorometer (Perkin Elmer LS55B Luminescence Spectrometer). Excitation and emission wavelengths were set to 546 and 595 nm, respectively. After thermal equilibrium was established the emission and excitation slits were modified to give a fluorescence reading of 50 arbitrary units with measurements being recorded over a 20-s interval. An aliquot of complex or drug solution was taken (0.5 - 10 µL), was added to the cuvette and after equilibration the fluorescence reading was recorded. Repeated aliquots were added until the fluorescence was 20-40% of the initial control. Triplicate titrations were preformed and the apparent binding constants were calculated using Kapp = Ke x 1.26/C50 where Ke = 9.5 x 10^6 M(bp)^-1.

The test system of data set [3] is CT-DNA. In words: DNA-ethidium fluorescence quenching. In kind it is binding, calf. The following applies: Q = equivalent concentration required to reduce fluorescence by 50%; 2.0 µM EtBr, 20 µM DNAp, 2 mM NaOAc buffer, 9.3 mM NaCl, pH 5.0. On the procedure: (§5) DNA-Ethidium Fluorescence Quenching. Working solutions containing 20 µM poly[d(AT)]2 (ε260 = 13,100 M(bp)^-1 cm^-1), poly[d(G-C)]2 (ε260 = 16,800 M(bp)^-1 cm^-1) and CT-DNAp (ε260 = 12,824 M(bp)^-1 cm^-1) along with 2.0 µM Et in NaOAc buffer (2 mM NaOAc, 9.3 mM NaCl, 0.1 mM Na2EDTA, pH = 5.0) were prepared. Subsequent experimental steps are identical to the displacement experiment with the exception that a fluorescence reading of 200 arbitrary units with measurements being recorded over a 20-s interval was used. From a plot of the fluorescence vs added drug concentration, the Q values is given by the concentration required to effect 50% removal of the initial fluorescence.

The next data set concerns pUC18. Briefly: Nuclease activity: relaxation of supercoiled plasmid DNA, agarose gel. In kind it is biochemical. The following applies: 37 °C; for concentration at which nuclease activity is seen: supercoiled pUC18, 5 hours, no added H2O2, oxidant or reductant. On the procedure:
Nuclease Activity. Reactions were carried out in a total volume of 20 µL in 0.1 M cacodylate buffer (pH = 6.0) with either 0.5, 2.5, 10 µL of 40 µM complex or 2, 5, 10 µL of 200 µM of complex, which were initially prepared in DMF, then diluted in cacodylate buffer (in which they dissolved), with 1 µL of 0.25 µg/µL pUC18 in cacodylate buffer. The resulting mixtures contained 1, 5, 10, 20, 50 and 100 µM of complex and […] of pUC18. Samples were incubated for 5 hr at 37°C. Quench buffer (3 µL; 0.25% bromophenolblue, 0.25% xylene cyanole and 30% glycerol) was then added and samples were loaded onto agarose gel (0.8%) containing 1.5 µL/100 mL of solution of GelRed™ (10,000X). Electrophoresis was completed at 80 V for 2 hr in 1XTAE buffer.

A further data set relates to DU145. Briefly: MTT cytotoxicity assay, complexes 1-6. The following applies: DU145 prostate cancer, 24 hr exposure, mean of three independent experiments +/- standard error. In kind it is cell-based, Human. As to the method: (§6) Human colon cancer cell line, HT29 (passage 17 to 30, ATCC, USA), was grown in McCoys's 5a medium supplemented with 2mM L-glutamine and fetal bovine serum (FBS) 10% and containing 100U/ ml penicillin and 100µg / ml streptomycin at 37°C in a humidified atmosphere with 5% CO2 Human Breast Cancer cell line, MCF-7 (passage 16 to 26, ATCC, USA) was grown in Eagle's minimum essential medium containing 2mM L-glutamine, 100U/ ml penicillin,100µg/ ml streptomycin, FBS (10%), 1mM sodium pyruvate and 1% (v/v) non essential amino acids at 37°C in a humidified atmosphere with 5% CO2 Human prostate cancer cell line, DU145 (passage 12 to 29, ATCC, USA) was grown in Eagle's minimum essential medium containing 2mM L-glutamine, 100U/ ml penicillin, 100µg/ ml streptomycin, FBS (10%), 1mM sodium pyruvate and 1% (v/v) non essential amino acids at 37°C in a humidified atmosphere with 5% CO2. All drugs were tested by MTT assay following 24-hour exposure of cells to each compound. Each value represents the mean IC50 of three independent experiments +/- standard error.
(§7) MTT Assay. This method is based on the reduction of the tetrazolium salt, methylthiazolyldiphenyl-tetrazolium bromide (MTT) into a crystalline blue formazan product by the cellular oxidoreductases of viable cells. The resultant formazan crystal formation is proportional to the number of viable cells. Cells were seeded at 4x 10^5 cells/ml in 96-well plates and incubated at 37°C in 5% CO2 for 24 hours. Cells were treated with a four log range of concentration of the test compounds in triplicate from 0.1 to 500 µM or with a solvent control (0.5% DMSO) in complete medium. Following 24 h incubation, cells were incubated with 20 µl of MTT (5 mg/ml) in 0.1 M PBS, pH 7.4 at 37 °C in a humid atmosphere with 5% CO2 for 4 h. Media was then gently aspirated from test cultures and 100 µL of dimethyl sulphoxide (DMSO) was added to all wells. The plates were then shaken for 2 min and the absorbance was read at 550 nm in a Varioscan plate reader. The IC50 was defined as the concentration of test compound required to reduce the absorbance of the MTT-formazan crystals by 50%, indicating 50% cell deactivation.

The subject of data set [4] is HT29. Briefly: MTT cytotoxicity assay, complexes 1-6. In kind it is cell-based, Human. The conditions noted are these: HT29 colon cancer, 24 hr exposure, mean of three independent experiments +/- standard error. On the procedure:
as §6, §7

The next data set deals with MCF-7. In words: MTT cytotoxicity assay, complexes 1-6. In kind it is cell-based, Human. The conditions noted are these: MCF-7 breast cancer, 24 hr exposure, mean of three independent experiments +/- standard error. On the procedure: as §6, §7
In the next data set the test system is SK-OV-3. Briefly: MTT cytotoxicity assay, complexes 1-6. The following applies: SK-OV-3 ovarian cancer, 24 hr exposure, mean of three independent experiments +/- standard error. In kind it is cell-based, Human. On the procedure:
as §7
Cu(II) bis-phen complexes 4-6 display rapid, low micomolar toxicities against all tumor lines. […] It should be noted that 6 is dinuclear and so contains two active copper units, which may explain this heightened potency.

The test system of a further data set is poly[d(A-T)]2. In words: DNA-ethidium fluorescence quenching. In kind it is binding. The conditions noted are these: Q = equivalent concentration required to reduce fluorescence by 50%; 2.0 µM EtBr, 20 µM DNAp, 2 mM NaOAc buffer, 9.3 mM NaCl, pH 5.0. On the procedure: as §5
The test system of a further data set is poly[d(G-C)]2. Briefly: DNA-ethidium fluorescence quenching. In kind it is binding. The following applies: Q = equivalent concentration required to reduce fluorescence by 50%; 2.0 µM EtBr, 20 µM DNAp, 2 mM NaOAc buffer, 9.3 mM NaCl, pH 5.0. As to the method: as §5
The subject of data set [5] is four Human-derived tumor lines. In words: MTT assay, summary statements over the four tumor lines. The format is cell-based. The conditions noted are these: MCF-7, DU145, SK-OV-3, HT29, 24 hours. As to the method:
as §6
MTT Assay. This method is based on the reduction of the tetrazolium salt, methylthiazolyldiphenyl-tetrazolium bromide (MTT) into a crystalline blue formazan product by the cellular oxidoreductases of viable cells. […] The plates were then shaken for 2 min and the absorbance was read at 550 nm in a Varioscan plate reader. […]

The nature of data set [6]: Solubility in organic solvents. The following applies: DMSO/DMF.

With “[Cu2(oda)(phen)4](ClO4)2.2.67H2O.C2H5OH [Complex 7]”, the “Activity LD50” value was 9.61 µM in the data set with HT29 [1], 11.3 µM with SW480 and 31 µM in the data set on SW620. Besides, the “Kapp (apparent binding constant)” value in the data set with CT-DNA [2] is on record as 2.55x10^5 M(bp)^-1. For the same substance, the “DNA binding ability, in words” value in the data set with CT-DNA [2] (competitive EtBr displacement with CT-DNA) is on record as “efficient ability to bind with calf thymus DNA”. The IC50 was determined as 46.9 µM in the data set with CT-DNA [2] and 22.6 µM in the data set on CT-DNA [3]. For the same substance, the “'self-activating' nuclease activity (relaxation of SC pUC18), in words” value in the data set with pUC18 (1-100 µM complex, 5 hours, no added H2O2 or reductant) was “highly efficient in the cleavage of plasmid DNA”. For the same substance, the “concentration at which nuclease activity is seen” value in the data set on pUC18 is listed as at least 10 µM.
As to “[{Cu{(phen)2}2(terph)](terph)10H2O.3EtOH [Complex 6]”, the IC50 in the data set with DU145 turned out to be 5.7 ± 0.2 µM; with HT29 [4], 5.4 ± 0.3 µM; with MCF-7, 7.9 ± 0.4 µM; with SK-OV-3, 6.7 ± 0.4 µM; with CT-DNA [2], 39.4 µM; in the data set on poly[d(A-T)]2 it was 8.55 µM. For the same substance, the IC50 in the data set on poly[d(G-C)]2 was 10.3 µM. Besides, the “Kapp (apparent binding constant)” value in the data set with CT-DNA [2] is 3.04x10^5 M(bp)^-1. The “concentration at which nuclease activity is seen” value with pUC18 lay in the range of 1 to 5 µM. Further, in [5], the “cytotoxicity against all tumor lines, in words” value is listed as “best broad-spectrum activity”. Further, in data set [6], the Solubility result is listed as “forms only suspensions in DMSO/DMF”.
